In PubChem BioAssay AID977628 (Broad Institute, 2014):
Records with an inconclusive call do not appear. Activity calls are given as the source filed them.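 Rule for the calls: active = compound lowering the normal-ribosome reporter at least twice as much as the humanized-ribosome reporter, growth loss under a set limit; inconclusive = no clear call, values can overlap the other calls; inactive = the rest.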

What follows are molecules tested on E. coli WT GFP strain growth, fluorescence, 24 h (assay: growth of wild-type and h24-humanized E. coli strains – h24 mutant RFP vs wild-type GFP, cherry-pick, dose response (AID 977628)). Conditions: not given.
With `c1ccc(SCc2nc3ccccc3s2)nc1` the AC50 was > 100 µM (inactive). In the case of `CC(C(=O)Nc1nc2ccccc2s1)n1cc([N+](=O)[O-])cn1` (centres undefined), the AC50 is reported as > 100 µM (inactive). In the case of `Cc1ccsc1C(=O)OCC(=O)N1CCc2ccccc2C1`, the AC50 is reported as > 100 µM (inactive). `O=C(CCCOc1ccc(Cl)cc1Cl)Nc1ccccc1C(=O)O` was tested, and the AC50 was > 100 µM (inactive). For `O=C(C[n+]1cc(-c2ccc(Cl)c(Cl)c2)n2c1CCC2)OCc1ccccc1`, the AC50 was > 100 µM (inactive). `CCOC(=O)c1cccc(OS(=O)(=O)Cc2ccccc2)c1` was tested, and the AC50 was > 100 µM (inactive). `COc1ccc2[nH]c3c(=O)n(CCCCC(=O)NCCC(C)C)c(=S)[nH]c3c2c1` was tested, and the AC50 was > 100 µM (inactive). For `CSc1cccc(NC(=O)CSc2nc3ccccc3o2)c1`, the AC50 was > 100 µM (inactive). With `O=C(Nc1cccc(-c2cn3ccccc3n2)c1)c1ccccc1` the AC50 was > 100 µM (inactive). `O=C(O)CC1(CC(=O)NCc2ccc(-c3cccs3)cc2)CCCCC1` was tested, and the AC50 was > 100 µM (inactive). For `CC1CCCN(c2ccc(C(=O)NCCc3ccccc3)cn2)C1` (centres undefined), the AC50 was > 100 µM (inactive). In the case of `Cc1cc(C(=O)NCCC2=CCCCC2)ccc1[N+](=O)[O-]`, the AC50 is reported as > 100 µM (inactive). For `CCOC(=O)c1cc(C)nc(N2CCCCC2)c1C#N`, the AC50 was > 100 µM (inactive). `COc1ccc(C(=O)N(c2ccccc2)c2nccc3ccccc23)cc1OC` was tested, and the AC50 was > 100 µM (inactive). For `COC(=O)c1sccc1NC(=O)Cn1nnc(-c2ccccc2C)n1`, the AC50 was > 100 µM (inactive). For `N#Cc1ccc(C(=O)Nc2ccn(-c3ccccc3)n2)cc1`, the AC50 was > 100 µM (inactive). In the case of `CCN(c1cccc2ccccc12)S(=O)(=O)c1ccc(Cl)nc1`, the AC50 is reported as > 100 µM (inactive). With `COc1ccc(Cn2c(=O)c3[nH]cnc3n(-c3ccc(C)cc3)c2=O)cc1` the AC50 was > 100 µM (inactive). `CC(=O)OC1N=C(c2ccccc2Cl)c2cc(Br)ccc2NC1=O` (centres undefined) was tested, and the AC50 was > 100 µM (inactive). `S=c1[nH]nc(-c2ccc3ccccc3n2)n1-c1ccc2c(c1)OCCO2` was tested, and the AC50 was > 100 µM (inactive). `Cc1ccccc1S(=O)(=O)c1cc2ccccc2nc1N` was tested, and the AC50 was > 100 µM (inactive). In the case of `CN1C(=O)c2ccccc2OC1(C)Cc1ccccc1` (centres undefined), the AC50 is reported as > 100 µM (inactive). In the case of `COc1cc(O)c2c(c1)/C=C/C[C@H](O)[C@H](O)C(=O)CCC[C@H](C)OC2=O`, the AC50 is reported as > 100 µM (inactive). In the case of `COc1cccc(C2c3cc4c(cc3OC(N3CCCC3)C2C)OCO4)c1O` (centres undefined), the AC50 is reported as > 100 µM (inactive). With `COc1ccc(OCC2c3cc(OC)c(OC)cc3CCN2C(=O)C(C)C)cc1` (centres undefined) the AC50 was > 100 µM (inactive). With `O=C(c1ccccc1)C1CN(Cc2ccccc2)CCC1(O)c1ccccc1` (centres undefined) the AC50 was > 100 µM (inactive). With `COc1ccc(NS(=O)(=O)c2cc(NC(=O)CNC(=O)c3cccc(OC)c3)ccc2C)cc1` the AC50 was > 100 µM (inactive). With `O=C(c1ccc(Cl)cc1)N1CCN(c2cccc3[nH]ccc23)CC1` the AC50 was > 100 µM (inactive). `CCCCCCCNC(=O)c1ccc(N2CCC3(CC2)OCCO3)c([N+](=O)[O-])c1` was tested, and the AC50 was > 100 µM (inactive). For `O=C(Cc1cccc2ccccc12)Nc1ccccc1C(=O)O`, the AC50 was > 100 µM (inactive). `Cc1cccc(NC(=O)CC23CC4CC(C2)CC(n2nnc(C)n2)(C4)C3)c1` was tested, and the AC50 was > 100 µM (inactive). For `CSC1=NCCN1C(=O)Cc1ccc(-c2ccccc2)cc1`, the AC50 was > 100 µM (inactive). With `C[C@@H]1CCCCO[C@@H](CN(C)C(=O)c2ccccc2)[C@H](C)CN([C@@H](C)CO)C(=O)c2cc(NC(=O)c3ccccc3)ccc2O1` the AC50 was > 100 µM (inactive). In the case of `O=S(=O)(c1ccc(Cl)cc1)N1CCN=C1SCc1cccc(Cl)c1`, the AC50 is reported as > 100 µM (inactive). For `CCn1nc(Cc2cccc3ccccc23)c(C#N)c1N`, the AC50 was > 100 µM (inactive). With `COCc1nnc(NC(=O)c2ccc(S(=O)(=O)N3CCCC3)cc2)o1` the AC50 was > 100 µM (inactive). For `N#Cc1ccc(OCC(=O)N2CCN(S(=O)(=O)c3ccc(Cl)s3)CC2)cc1`, the AC50 was > 100 µM (inactive). With `CC(=O)N1CCOc2ccc(S(=O)(=O)N(C)c3ccc(C)cc3)cc21` the AC50 was > 100 µM (inactive). With `O=C(NCc1ccccc1Cl)[C@H]1CCCN1C(=O)[C@H]1CCCN1C(=O)c1cccc2ccccc12` the AC50 was > 100 µM (inactive). For `COc1ccc(CNS(=O)(=O)c2ccc3c(c2)NC(=O)C(C)S3)cc1` (centres undefined), the AC50 was > 100 µM (inactive). In the case of `COc1ccc(CNc2cc([N+](=O)[O-])ccc2OC)cc1`, the AC50 is reported as > 100 µM (inactive). `COc1cccc(Nc2nc(N)c([N+](=O)[O-])c(NCc3ccccc3)n2)c1` was tested, and the AC50 was > 100 µM (inactive). In the case of `CC(=O)Oc1ccc(N(C(C)=O)S(=O)(=O)c2ccc(C)cc2)c2ccccc12`, the AC50 is reported as > 100 µM (inactive). In the case of `O=c1[nH]c(C2CCCN(S(=O)(=O)c3ccccc3Cl)C2)nc2c1nnn2Cc1ccc2c(c1)OCCO2` (centres undefined), the AC50 is reported as > 100 µM (inactive). `CCCn1nnnc1NCc1ccccc1OCc1cccs1` was tested, and the AC50 was > 100 µM (inactive). For `CC(C)C[C@@H](CSc1ccccc1)N1CCN(CC(C)C)CCC1=O`, the AC50 was > 100 µM (inactive). With `CCOC(=O)c1csc(NC(=O)CC2CCCC2)n1` the AC50 was > 100 µM (inactive). `CN(c1ccccc1)S(=O)(=O)c1cccc(C(=O)OCC(=O)NCc2ccco2)c1` was tested, and the AC50 was > 100 µM (inactive). For `COc1ccc(NC(=O)CN(C)C(=O)c2cc(C3CC3)nn2-c2ccccc2)cc1`, the AC50 was > 100 µM (inactive). With `COCCCn1c(C)cc(C(=O)COC(=O)CCc2nc3ccccc3c(=O)[nH]2)c1C` the AC50 was > 100 µM (inactive). In the case of `CC1=Nc2cc(C(=O)NCC3CCCO3)ccc2Sc2ccc(Br)cc21` (centres undefined), the AC50 is reported as > 100 µM (inactive). With `O=C(Cc1cccc(NC(=O)C2CCN(C(=O)C3CCCCC3)CC2)c1)Nc1cccc(C(=O)N2CCCC2)c1` the AC50 was > 100 µM (inactive). With `O=C(O)c1cc2ccc3ccccc3c2[nH]1` the AC50 was > 100 µM (inactive). With `Cc1cc2nc(SCC(=O)O)nc(C)c2cc1C` the AC50 was > 100 µM (inactive). With `CCCc1c(C(=O)Nc2ccc(OC)cc2)cnn1-c1ccccc1` the AC50 was > 100 µM (inactive). With `C=CCN(c1ccccc1)S(=O)(=O)c1cccc2cccnc12` the AC50 was > 100 µM (inactive). In the case of `COc1ccc(C)cc1-n1c(=O)c2ccccc2c2ccccc2c1=O`, the AC50 is reported as > 100 µM (inactive). With `Cc1nn(S(=O)(=O)c2ccc(Cl)cc2)c(C)c1Sc1ccc([N+](=O)[O-])cc1` the AC50 was > 100 µM (inactive). In the case of `O=c1[nH]c(C2CCN(S(=O)(=O)c3ccc4c(c3)OCCO4)CC2)nc2c1nnn2Cc1ccccc1F`, the AC50 is reported as > 100 µM (inactive). With `CSc1ccccc1NC(=O)c1ccccc1N(Cc1ccccc1)S(C)(=O)=O` the AC50 was > 100 µM (inactive). `COc1ccc(N2C(=O)C3C(C2=O)C3(c2ccccc2)c2ccccc2)cc1` (centres undefined) was tested, and the AC50 was > 100 µM (inactive). `CCOC(=O)c1cnc2c(cnn2C)c1NCc1ccc(OC)cc1` was tested, and the AC50 was > 100 µM (inactive). With `O=C(Nc1ccc(S(=O)(=O)N2CCCC2)cc1)c1ccc(OCC2CCCO2)cc1` (centres undefined) the AC50 was > 100 µM (inactive). For `COc1ccccc1Cn1c(=S)[nH]c2ccc(F)cc2c1=O`, the AC50 was > 100 µM (inactive). For `COc1ccc(OC)c(-c2nnc3n2N=C(c2ccc(OC)c(OC)c2)CS3)c1`, the AC50 was > 100 µM (inactive). In the case of `O=S1(=O)N[C@H](Cc2ccccc2)COc2cccc(N3CCC[C@H]3CO)c21`, the AC50 is reported as > 100 µM (inactive). `COc1ccc(OC)c(S(=O)(=O)Nc2cccc3ccccc23)c1` was tested, and the AC50 was > 100 µM (inactive). In the case of `CC1(C(=O)NS(=O)(=O)c2ccc3c(c2)CCO3)CCN1C(=O)c1ccccc1CCc1ccccc1` (centres undefined), the AC50 is reported as > 100 µM (inactive).

Same assay, conditions: measured here: WT GFP, test 1
With `COc1ccc2[nH]c3c(=O)n(CCCCC(=O)NCCC(C)C)c(=S)[nH]c3c2c1` the AC50 was > 100 µM.
